Test results taken from publication PMC11040670, “Mechanistic and Kinetic Insights into Cellular Uptake of Biomimetic Dinitrosyl Iron Complexes and Intracellular Delivery of NO for Activation of Cytoprotective HO-1” (JACS Au, 2024).
Marks after values point to notes of the source that are not given here.

What was measured:
[1] = NO-release reactivity of DNICs (total nitrate/nitrite assay); type: physicochemical; settings: dinuclear DNIC 25 μM, phosphate buffer (pH 7.4), no additive, normoxia, 37 °C
Experimental: The NO-release reactivity of DNICs in 50 mM potassium phosphate buffer (pH 7.4) under normoxia condition at 37 °C was investigated using Nitrate/Nitrite Colorimetric Assay Kit (Item No. 780001, Cayman). After addition of 10 μL of 100 mM stock solution of DNIC–COOH (or DNIC–COOMe) in DMSO to 990 μL of 50 mM potassium phosphate buffer (pH 7.4), 25 μM of DNIC–COOH (or DNIC–COOMe) was prepared by the addition of 0.125 mL of this 1 mM solution of DNIC–COOH (or DNIC–COOMe) to 4.875 mL of 50 mM potassium phosphate buffer (pH 7.4). This solution was incubated at 37 °C under normoxia condition for 0, 1, 2, 4, 8, 24, 48, and 72 h, respectively. Then, 40 μL of the solution was collected to assess the release of NO using a Nitrate/Nitrite Colorimetric Assay Kit (Item No. 780001, Cayman). After each 40 μL aliquot of the aqueous solution was mixed with 40 μL of kit assay buffer, 10 μL of Enzyme Cofactor Mixture (Item No. 780012) and 10 μL of nitrate reductase mixture (Item No. 780010) were added before this mixture solution was incubated at room temperature for 1 h. […] The absorbance at 540 nm was then recorded using a microplate reader (SpectraMax iD3, Molecular Devices, San Jose, CA) with a reference wavelength of 800 nm. […]

MSC = test: Whole-cell EPR: cellular uptake and intracellular formation/decomposition of mononuclear DNIC in MSC; type: cell-based, human; settings: for tmax for cellular uptake and intracellular transformation (whole-cell EPR): normoxia, 100 μM DNIC–COOH or 2.5 μM DNIC–COOMe
Experimental: Cellular uptake of DNIC–COOH and intracellular formation/decomposition of mononuclear DNICs in MSC/N2a/HCEC cells were investigated using EPR spectroscopy. Briefly, cells were seeded into two (or one) 100 mm dish(es) at a density of 2 × 10^6 cells/dish and incubated at 37 °C overnight. On the next day, cells were treated with 100 μM of DNIC–COOH (or 100 μM of DNIC–COOH to N2a and 75 μM of DNIC–COOH to HCEC) and incubated for 0, 0.5, 1, 2, 3, 4, 8, and 24 h, respectively. After removal of the supernatant solution, cells were washed with DPBS before addition of 1 mL of trypsin (0.05%)/EDTA (0.53 mM) and incubation for 5 min at 37 °C. After the obtained cell suspension solutions from two 100 mm dishes were combined and centrifuged at 100g for 5 min, the supernatant was removed before addition of 100 μL of αMEM to DNIC-treated MSC (or MEM to DNIC-treated N2a and HSFM to DNIC-treated HCEC). This solution was then transferred into EPR quartz tube and frozen in N2(l) before the EPR measurements. For each measured EPR spectrum, double integration was executed to obtain the integrated EPR intensity under each condition. Moreover, time-dependent decay of integrated EPR signal intensity after treatment of DNIC–COOH was fit to pseudo-first-order kinetics in order to determine the intracellular half-life for EPR-active mononuclear DNIC. Three independent experiments were executed to measure the average half-life for intracellular decomposition of EPR-active mononuclear DNIC after treatment with DNIC–COOH at 37 °C. On the other hand, at the time point with maximum integrated EPR signal intensity, spin quantitation of intracellular EPR-active DNICs was performed using mononuclear DNIC [PPN][(NO)2Fe(S5)] as a standard according to the methodology used in the previous work.[50] Cellular uptake of DNIC–COOMe (2.5 μM to MSC, 10 μM to N2a, or 1 μM to HCEC) and intracellular formation/decomposition of EPR-active mononuclear DNICs were investigated using EPR spectroscopy in a similar manner.
Studies of cellular uptake mechanisms were investigated using EPR spectroscopy in combination with pretreatments of alternative inhibitors. After the MSC cells were seeded into two (or one) 100 mm dish(es) at a density of 2 × 10^6 cells/dish and incubated at 37 °C overnight, sequential treatments of 50 μM of NEM for 0.5 h and 100 μM of DNIC–COOH for 2 h were performed before the treated MSC cells were collected for EPR measurement following the procedure described above. […]

cGMP = test: DNIC-induced cGMP formation in MSC (confocal immunofluorescence); type: cell-based, human; settings: 100 μM DNIC–COOH or 2.5 μM DNIC–COOMe, 2 h
Experimental: The MSC cells were plated on a cover glass (18 mm in diameter) loaded into a 24-well plate at a density of 1.7 × 10^3 cells/well until the desired confluency was reached. After the culture media were removed, 100 μM of DNIC–COOH (or 2.5 μM of DNIC–COOMe) was added to the cell culture and incubated for 2 h. The culture media were removed before the MSC cells were washed three times with PBS, whereas the washed MSC cells were further fixed with 4% paraformaldehyde (PFA) solution for 15 min at room temperature. After the PFA solution was removed, the MSC cells were washed twice with PBS for 3 min and permeabilized using 0.1% Triton X-100 (in PBS) at room temperature for 4 min. Subsequently, the MSC cells were washed twice with PBS for 3 min and incubated with a blocking buffer (2.5% BSA in PBS) at room temperature for 30 min. Then, the MSC cells were incubated with primary antibody solution (1:1000 for rabbit anti-cGMP antibody, purchased from Biorbyt, Cambridge, U.K.) at room temperature for 1 h before the MSC cells were washed three times with PBS for 3 min. Cover glasses containing the fixed MSC cells were mounted onto a microscope slide loaded with Fluoroshield mounting medium with DAPI to stain the nuclei before the optical images were captured using a confocal imaging system (Leica TCS-SP-X AOBS).

## O=[N][Fe]1([N]=O)[SH](CCC(=O)O)[Fe]([N]=O)([N]=O)[SH]1CCC(=O)O (stereo not drawn) [DNIC–COOH, [(NO)2Fe(μ-SCH2CH2COOH)2Fe(NO)2]]
[1]
  t1/2 for release of NO from DNICs: 10.7 ± 1.4 ^e h
MSC; CPZ-treated MSC
  relative whole-cell EPR signal intensity at gav = 2.03 (control = 100%): 84.2 ± 11.0%
MSC; MSC
  tmax for cellular uptake and intracellular transformation (whole-cell EPR): 2 h
cGMP
  formation of cGMP: elevated formation of cGMP

## COC(=O)CC[SH]1[Fe]([N]=O)([N]=O)[SH](CCC(=O)OC)[Fe]1([N]=O)[N]=O (stereo not drawn) [DNIC–COOMe, [(NO)2Fe(μ-SCH2CH2COOCH3)2Fe(NO)2]]
[1]
  t1/2 for release of NO from DNICs: 9.1 ± 0.6 ^e h
MSC; MSC, native FBS replaced with 20% NEM-treated FBS
  relative whole-cell EPR signal intensity at gav = 2.03 (control = 100%): 172.4 ± 24.1%
MSC; MSC
  tmax for cellular uptake and intracellular transformation (whole-cell EPR): 0.5 h
MSC; MSC, pretreatment of NEM 0.5 h, then DNIC–COOMe 0.5 h, reduction
  relative whole-cell EPR signal intensity at gav = 2.03 (control = 100%): 29.7 ± 16.3%
cGMP
  formation of cGMP: elevated formation of cGMP
